For one assay, the target named is FXIa (Homo sapiens, UniProt P03951). As to the kind of experiment: Inhibitory activity against FXIa in vitro (biochemical assay). In a few lines: (§1)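 Compounds were dispensed acoustically from DMSO and tested in duplicate. IC50 values came from nonlinear regression curve fitting.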
In assay [1] the target is T1, plasma kallikrein (PKa) (Homo sapiens, UniProt P03952).
T1 construct: purchased R & D 2497-SE
Briefly: Inhibitory activity against plasma kallikrein in vitro (fluorescence intensity enzyme assay, Pro-Phe-Arg-AMC substrate). The settings on record: plasma kallikrein enzyme assay, Pro-Phe-Arg-AMC substrate; read-out: PKa IC50. It counts as biochemical. In a few lines: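 Fluorescence intensity enzyme assay with 10 nM enzyme and 60 µM Pro-Phe-Arg-AMC (final concentrations). Compounds in DMSO, tested in duplicate over a dose series. IC50 from nonlinear regression curve fitting.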

For another assay, the target named is KLK1 (Homo sapiens, UniProt P06870). Briefly: Inhibitory activity against KLK1 in vitro (biochemical assay). In a few lines: as §1
The target in assay [2] is T1, plasma kallikrein (PKa). Briefly: PKa inhibition in kaolin-activated human platelet-poor plasma (PPP). It counts as biochemical. The settings on record: Pro-Phe-Arg-AMC substrate, fluorescence signal. The method, then: Test Example 2. Evaluation of the compounds of the present invention in terms of PKa Inhibition in Kaolin-Activated Human PPP: Platelet-poor plasma (PPP) obtained from human whole blood, anticoagulated with Na - Citrate, was incubated with various concentrations of the test compounds and 25, 75, 250, or 750 µg/mL kaolin in assay buffer for 20 minutes at 37°C, so that a concentration response of the test compounds was obtained with respect to various kaolin concentrations. The positive drug was diluted in accordance with the reference concentration and diluted 3-fold with the diluent as the first point.
50 nL of compounds were then transferred to a 384 assay plate containing 2 replicates per well. The 384 assay plate was centrifuged at 1000 rpm/min. 2.5 µL of human plasma working solution was added to each assay well. The 384 assay plate was centrifuged at 1000 RPM. 2.5 µL of kaolin working solution was added to each assay well. The 384 assay plate was centrifuged at 1000 RPM and incubated at 25°C for 20 minutes. 5 µL of Pro-Phe-Arg-AMC working solution was added to each assay well. The 384 assay plate was centrifuged at 1000 RPM and incubated at 25°C for 60 minutes. BMG reads the fluorescence signal.
The percent inhibition of the compound was calculated according to the following formula: [formula]

pIC50: −log10 of the molar value.

From patent publication EP4737450A1 (Longwood Pharmaceuticals (Hangzhou) Co., Ltd, priority 2023, dated 2025) come the findings set out here.

Chain of KLK1 (P06870 25-262, species assumed): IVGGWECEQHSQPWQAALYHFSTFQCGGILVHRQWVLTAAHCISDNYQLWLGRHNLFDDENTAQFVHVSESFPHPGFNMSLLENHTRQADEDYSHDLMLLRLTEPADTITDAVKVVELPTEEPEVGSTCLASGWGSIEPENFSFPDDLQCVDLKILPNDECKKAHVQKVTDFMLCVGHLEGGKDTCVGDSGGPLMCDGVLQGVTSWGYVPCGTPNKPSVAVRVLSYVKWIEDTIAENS
Chain of FXIa (P03951 388-625 limits assumed): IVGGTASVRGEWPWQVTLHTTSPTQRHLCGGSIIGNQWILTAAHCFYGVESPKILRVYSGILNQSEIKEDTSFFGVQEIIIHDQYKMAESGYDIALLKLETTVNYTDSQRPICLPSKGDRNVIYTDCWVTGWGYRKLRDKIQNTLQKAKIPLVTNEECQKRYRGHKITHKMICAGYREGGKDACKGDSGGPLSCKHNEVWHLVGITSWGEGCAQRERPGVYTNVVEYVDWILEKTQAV
Chain of FXIa (P03951 19-387 partner limits assumed): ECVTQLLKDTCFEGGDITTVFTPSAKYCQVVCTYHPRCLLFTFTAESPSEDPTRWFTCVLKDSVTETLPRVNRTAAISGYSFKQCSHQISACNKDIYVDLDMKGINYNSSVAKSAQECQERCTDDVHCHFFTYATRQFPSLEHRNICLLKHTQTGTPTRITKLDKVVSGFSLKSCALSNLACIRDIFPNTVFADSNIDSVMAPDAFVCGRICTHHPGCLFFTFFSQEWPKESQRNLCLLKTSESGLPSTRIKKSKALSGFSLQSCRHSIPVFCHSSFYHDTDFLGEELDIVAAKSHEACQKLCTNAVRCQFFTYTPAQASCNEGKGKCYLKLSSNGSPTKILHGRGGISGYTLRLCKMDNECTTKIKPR
T1 sequence (P03952 391-638 limits assumed): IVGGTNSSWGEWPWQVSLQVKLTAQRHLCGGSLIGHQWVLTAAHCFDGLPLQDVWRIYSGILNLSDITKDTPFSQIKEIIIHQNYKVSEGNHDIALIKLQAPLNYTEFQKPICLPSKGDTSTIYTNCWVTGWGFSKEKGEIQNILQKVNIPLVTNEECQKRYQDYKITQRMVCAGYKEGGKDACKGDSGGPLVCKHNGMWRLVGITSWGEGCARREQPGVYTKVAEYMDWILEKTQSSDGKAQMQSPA
T1 sequence (P03952 20-390 partner limits assumed): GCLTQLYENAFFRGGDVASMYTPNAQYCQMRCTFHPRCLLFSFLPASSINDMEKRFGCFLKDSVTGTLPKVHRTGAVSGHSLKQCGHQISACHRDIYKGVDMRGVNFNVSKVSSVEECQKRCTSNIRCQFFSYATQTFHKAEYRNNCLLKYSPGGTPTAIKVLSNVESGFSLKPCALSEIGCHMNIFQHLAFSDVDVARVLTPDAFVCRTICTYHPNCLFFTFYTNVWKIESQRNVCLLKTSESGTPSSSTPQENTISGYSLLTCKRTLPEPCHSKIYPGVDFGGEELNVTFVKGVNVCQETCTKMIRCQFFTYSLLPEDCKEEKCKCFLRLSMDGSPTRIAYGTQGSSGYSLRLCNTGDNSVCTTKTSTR

Broadly, the IC50 is the midpoint of a concentration-inhibition curve. Lower therefore signals higher potency. As a reminder, the pIC50 is the negative decadic logarithm of the IC50, by convention in mol/L. As for `Cc1cc(N)nc(C)c1CNC(=O)c1cn(Cc2ccc(Cn3ccccc3=O)cc2)nn1` [Compound 1, N-((6-amino-2,4-dimethylpyridin-3-yl)methyl)-1-(4-((2-oxopyridin-1(2H)-yl)methyl)benzyl)-1H-1,2,3-triazole-4-carboxamide], the IC50 on FXIa (values given in µM) and at KLK1 (values given in µM) was above 10 µM throughout. Besides, the pIC50 is 9.75 at plasma kallikrein (PKa) [1] and 8.12 against plasma kallikrein (PKa) [2].
Take `Cc1cc(N)nc(C)c1CNC(=O)c1ncn(Cc2ccc(Cn3cc(F)ccc3=O)cc2)n1` [Compound 23]: the IC50 against FXIa (values given in µM) and on KLK1 (values given in µM) was above 10 µM each time. Also, the pIC50 at plasma kallikrein (PKa) [1] is above 10.30; at plasma kallikrein (PKa) [2], 8.10.
Consider `COCc1nn(Cc2ccc(Cn3cccn3)cc2)cc1C(=O)NCc1c(C)cc(N)nc1C` [Compound 14, 1-(4-((1H-pyrazol-1-yl)methyl)benzyl)-N-((6-amino-2,4-dimethylpyridin-3-yl)methyl)-3-(methoxymethyl)-1H-pyrazol-4-carboxamide], for which the IC50 at FXIa (values in nM) and against KLK1 (values in nM) was above 0.5 µM in each case. Further, the values for the pIC50 on plasma kallikrein (PKa) [1] and against plasma kallikrein (PKa) [2] were 9.67 and 8.12, respectively.
For `COCc1nn(Cc2ccc(Cn3ccccc3=O)cc2)cc1C(=O)NCc1ccc(C(=N)N)cc1F` [Compound 241], the IC50 against FXIa (values given in µM) and at KLK1 (values given in µM) was above 10 µM throughout. The results for the pIC50 at plasma kallikrein (PKa) [1] and against plasma kallikrein (PKa) [2] were 10.10 and 7.71, respectively.
As for `Cc1cc(N)nc(C)c1CNC(=O)c1ncn(Cc2ccc(Cn3ccccc3=O)cc2)n1` [Compound 11, N-((6-amino-2,4-dimethylpyridin-3-yl)methyl)-1-(4-((2-oxopyridin-1(2H)-yl)methyl)benzyl)-1H-1,2,4-triazole-3-carboxamide], the half-inhibitory concentration (IC50) on FXIa (values in nM) and on KLK1 (values in nM) was above 0.5 µM each time. The values for the pIC50 at plasma kallikrein (PKa) [1] and against plasma kallikrein (PKa) [2] were 10.52 and 8.22, respectively.
In the case of `COCc1nn(Cc2cn3cc(C4CC4)ccc3n2)cc1C(=O)NCc1ccc(C(=N)N)cc1` [Compound 39], the IC50 against FXIa (values given in µM) and against KLK1 (values given in µM) was above 10 µM throughout. For the same compound, the pIC50 was above 10.30 on plasma kallikrein (PKa) [1] and 7.13 on plasma kallikrein (PKa) [2].
For the compound `Nc1nccc2cc(CNC(=O)c3ncn(Cc4ccc(Cn5ccccc5=O)cc4)n3)ccc12` [Compound 76], the IC50 against FXIa (values given in µM) and at KLK1 (values given in µM) was above 10 µM each time. Also, the pIC50 on plasma kallikrein (PKa) [1] is 9.02; against plasma kallikrein (PKa) [2], 7.90.
Take `Cc1cc(N)nc(C)c1CNC(=O)c1nn(Cc2ccc(Cn3ccccc3=O)cc2)cc1C1CCCO1` (centres unmarked) [Compound 4, N-((6-amino-2,4-dimethylpyridin-3-yl)methyl)-1-(4-((2-oxopyridin-1(2H)-yl)methyl)benzyl)-4-(tetrahydrofuran-2-yl)-1H-pyrazole-3-carboxamide]: the IC50 against FXIa (values given in µM) and against KLK1 (values given in µM) was above 10 µM in each case. The negative logarithm of the IC50 (pIC50) on plasma kallikrein (PKa) [1] was 9.81; against plasma kallikrein (PKa) [2], 7.88.
